Measured values taken from US6506580B1, “Splice variants for human 5-HT4 serotonin receptor and their applications, in particular for screening” (Institut National de la Sante et de la Recherche Medicale …, priority 1997, dated 2003).

Experiments:
receptor 5-HT4(c) = receptor 5-HT4(c) (Homo sapiens, UniProt Q13639); assay: cAMP formation in transiently transfected COS-7 cells; format: cell-based; set-up: The entire coding region of the cDNAs of 5-HT4(a), 5-HT4(b), 5-HT4(c) and 5-T4(d) was subcloned; expressed in transfected cells; host or cells: COS-7 cells, transient, pRC/CMV vector; cDNA amplified from human brain and ileum RNA; conditions: for decrease of the basal cAMP values: 1 μM
Method: (§1) The entire coding region of the cDNAs of 5-HT4(a), 5-HT4(b), 5-HT4(c) and 5-T4(d) was subcloned into a mammalian expression vector pRC/CMV (Invitrogen, Carlsbad, Calif.). The transfections were carried out using polyethyleneimine (PEI) as described in Boussif et al. (1995). The cells were transfected using a mixture of DNA and of PEI in a ratio of 20 μmol of PEI/mg of DNA in 0.9% NaCl. For the radioligand binding assays, the COS-7 cells were seeded into culture flasks of 1.5×10^4 mm^2 one day before the transfection, at a density of 1×10^7 cells/flask, incubated for six hours with plasmid DNA (150 μg/flask) and collected 48 hours after transfection. For the measurement of cAMP formation, the COS-7 cells were seeded onto twelve-well plates one day before transfection, at a density of 5×10^5 cells/well, incubated for six hours with plasmid DNA (4 to 8 μg/well according to the experiments) and assayed 24 hours after the transfection. The cells transfected with the receptor 5-HT4 cDNA constructs were compared with the “blank”-transfected cells, which were exposed to the unmodified pRC/CMV plasmid.
(§2) To measure intracellular cAMP accumulation, the transiently transfected COS-7 cells were incubated, 24 hours after transfection, in Dulbecco's modified Eagle medium (DMEM) containing 5 mM theophylline, 10 mM HEPES and 10 μM pargyline for 15 minutes at 37° C., in the presence of 5% CO2. […] The reaction was stopped by aspiration of the medium and addition of 500 μl of ice-cold ethanol. After one hour at room temperature, the cells were scraped, and everything was collected and freeze-dried. The pellet was resuspended in 350 μl of PBS and centrifuged for 5 min at 300 g. The cAMP was quantified in the supernatant using a radioimmunological assay (E.R.I.A. assay kit from Pasteur Diagnostics 79830). Student's t tests were carried out using the program Quick TEst.
ML10375 is capable of reducing the cAMP levels in the cells expressing the 5-HT4(c) and 5-HT4(d) isoforms in the absence of any stimulation of the receptor by 5-HT4 agonists. To test the hypothesis that ML10375 may constitute a reverse agonist for the human receptor 5-HT4, the 5-HT4(c) isoform was overexpressed in COS-7 cells in order to increase the frequency of the spontaneously active state of the receptor. The COS-7 cells were transfected with 4 to 8 μg of plasmid DNA per well in order to obtain an increase in the expression levels of the receptor 5-HT4(c). […] (FIG. 6B).

receptor 5-HT4(a) [1] = target: T1, receptor 5-HT4(a) (Homo sapiens, UniProt Q13639); assay: as above; format: cell-based; conditions: COS-7, 1 μM, no agonist
T1 construct: The entire coding region of the cDNAs of 5-HT4(a), 5-HT4(b), 5-HT4(c) and 5-T4(d) was subcloned; expressed in transfected cells; host or cells: COS-7 cells, transient, pRC/CMV vector

receptor 5-HT4(d) = receptor 5-HT4(d) (Homo sapiens, UniProt Q13639); assay: as above; format: cell-based; set-up: The entire coding region of the cDNAs of 5-HT4(a), 5-HT4(b), 5-HT4(c) and 5-T4(d) was subcloned; expressed in transfected cells; host or cells: COS-7 cells, transient, pRC/CMV vector; cDNA amplified from human brain and ileum RNA; conditions: COS-7, 1 μM, no agonist
Method: The entire coding region of the cDNAs of 5-HT4(a), 5-HT4(b), 5-HT4(c) and 5-T4(d) was subcloned into a mammalian expression vector pRC/CMV (Invitrogen, Carlsbad, Calif.). The transfections were carried out using polyethyleneimine (PEI) as described in Boussif et al. (1995). The cells were transfected using a mixture of DNA and of PEI in a ratio of 20 μmol of PEI/mg of DNA in 0.9% NaCl. For the radioligand binding assays, the COS-7 cells were seeded into culture flasks of 1.5×10^4 mm^2 one day before the transfection, at a density of 1×10^7 cells/flask, incubated for six hours with plasmid DNA (150 μg/flask) and collected 48 hours after transfection. For the measurement of cAMP formation, the COS-7 cells were seeded onto twelve-well plates one day before transfection, at a density of 5×10^5 cells/well, incubated for six hours with plasmid DNA (4 to 8 μg/well according to the experiments) and assayed 24 hours after the transfection. […]
To measure intracellular cAMP accumulation, the transiently transfected COS-7 cells were incubated, 24 hours after transfection, in Dulbecco's modified Eagle medium (DMEM) containing 5 mM theophylline, 10 mM HEPES and 10 μM pargyline for 15 minutes at 37° C., in the presence of 5% CO2. […] The cAMP was quantified in the supernatant using a radioimmunological assay (E.R.I.A. assay kit from Pasteur Diagnostics 79830). […]

[2] = test system: “blank”-transfected COS-7 cells; assay: cAMP formation in control COS-7 cells; format: cell-based; conditions: 1 μM
Method: as §1, §2

receptor 5-HT4(b) = target: T2, receptor 5-HT4(b) (Homo sapiens, UniProt Q13639); assay: [3H]GR113808 radioligand binding, membranes of transiently transfected COS-7 cells; conditions: read-out: Ki, competition for [3H]GR113808 binding
T2 construct: The entire coding region of the cDNAs of 5-HT4(a), 5-HT4(b), 5-HT4(c) and 5-T4(d) was subcloned; expressed in transfected cells; host or cells: COS-7 cells, transient, pRC/CMV vector; cDNA amplified from human brain and ileum RNA
Method: as §1
(§3) Each flask of cells intended for the radioligand binding assays was washed twice with a phosphate buffer (PBS). The cells were then scraped, collected and centrifuged at 300 g for five minutes. The pellet was resuspended in 2.5 ml of ice-cold HEPES buffer (50 mM, pH 7.4) and homogenized with an Ultraturax tissue grinder. The lysate was then centrifuged at 40,000 g for 20 minutes at 4° C. The resulting pellet was resuspended in 15 volumes of HEPES buffer (50 mM, pH 7.4). The membrane preparations were maintained in ice and used within two hours for radioligand binding assays. The protein concentrations were determined by the method of Lowry et al., 1951, using bovine serum albumin as standard.
(§4) The saturation studies were performed using [^3H] GR113808 at 9 different concentrations ranging from 0.01 to 3.5 nM. The tubes were incubated at 25° C. for 30 minutes. The reaction-was stopped by rapid filtration, under vacuum, through Whatman GF/B filter paper using the Brandel 48R cell harvester. The filters were presoaked in a solution of PEI (0.1%) to reduce the binding to the filters. The filters were then washed with an ice-cold buffer (50 mM Tris-HCl, pH 7.4) and placed in 4 ml of “ready safe” scintillation cocktail (Beckman, Fullerton, Calif.) overnight. The radioactivity was measured using a Beckman LS 6500 C liquid scintillation counter. The binding data were analysed by computer-assisted nonlinear regression analysis (Graph Pad Prism Program, Graph Pad Software, Inc., San Diego, Calif.).
(§5) The experiments correspond to the competition of various compounds for [^3H]GR113808 binding to membranes of transiently transfected COS-7 cells. […] The estimations of affinity are given as Ki values in nM, and are determined from IC50 values obtained by computer-assisted nonlinear curve analysis (GraphPad, Prism Software). The Ki values are representative of at least two determinations.

receptor 5-HT4(a) [3] = target: T1, receptor 5-HT4(a); assay: as above; conditions: read-out: Ki, competition for [3H]GR113808 binding
Method: as §1, §3, §4, §5

Chain of receptor 5-HT4(c) (Q13639 1-380 isoform Q13639-4): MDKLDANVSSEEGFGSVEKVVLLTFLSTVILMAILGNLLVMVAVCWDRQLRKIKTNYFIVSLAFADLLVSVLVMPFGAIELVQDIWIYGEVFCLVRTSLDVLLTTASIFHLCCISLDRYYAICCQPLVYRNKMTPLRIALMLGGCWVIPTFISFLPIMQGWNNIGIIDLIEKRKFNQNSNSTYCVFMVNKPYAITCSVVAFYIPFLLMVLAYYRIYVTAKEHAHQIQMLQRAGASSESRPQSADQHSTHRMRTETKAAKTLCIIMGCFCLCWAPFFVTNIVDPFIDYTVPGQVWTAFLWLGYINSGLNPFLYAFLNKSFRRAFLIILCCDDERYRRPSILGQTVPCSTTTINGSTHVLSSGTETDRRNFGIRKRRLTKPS
T1 sequence (Q13639 1-387 isoform Q13639-2): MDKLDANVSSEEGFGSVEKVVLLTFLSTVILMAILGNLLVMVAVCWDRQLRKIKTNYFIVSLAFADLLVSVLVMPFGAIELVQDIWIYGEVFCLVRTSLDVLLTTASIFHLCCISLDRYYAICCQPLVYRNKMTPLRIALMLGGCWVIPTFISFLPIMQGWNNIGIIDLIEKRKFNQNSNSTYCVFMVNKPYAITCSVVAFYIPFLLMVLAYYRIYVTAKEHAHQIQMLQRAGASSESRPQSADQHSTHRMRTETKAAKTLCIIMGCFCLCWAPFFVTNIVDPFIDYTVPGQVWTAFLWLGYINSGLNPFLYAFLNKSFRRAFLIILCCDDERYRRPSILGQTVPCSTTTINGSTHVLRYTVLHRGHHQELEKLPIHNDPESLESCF
T2 sequence (Q13639 whole entry): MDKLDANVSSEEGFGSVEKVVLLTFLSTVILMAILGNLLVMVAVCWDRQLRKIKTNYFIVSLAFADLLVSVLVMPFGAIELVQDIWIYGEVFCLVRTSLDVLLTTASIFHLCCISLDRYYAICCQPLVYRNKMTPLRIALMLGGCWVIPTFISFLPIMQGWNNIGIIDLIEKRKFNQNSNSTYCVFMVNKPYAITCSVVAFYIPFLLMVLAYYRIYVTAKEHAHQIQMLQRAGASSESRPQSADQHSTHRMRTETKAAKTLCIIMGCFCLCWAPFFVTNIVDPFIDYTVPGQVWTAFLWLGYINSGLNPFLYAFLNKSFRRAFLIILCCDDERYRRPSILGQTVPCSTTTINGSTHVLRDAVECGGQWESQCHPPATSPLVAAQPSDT
Chain of receptor 5-HT4(d) (Q13639 1-360 isoform Q13639-3): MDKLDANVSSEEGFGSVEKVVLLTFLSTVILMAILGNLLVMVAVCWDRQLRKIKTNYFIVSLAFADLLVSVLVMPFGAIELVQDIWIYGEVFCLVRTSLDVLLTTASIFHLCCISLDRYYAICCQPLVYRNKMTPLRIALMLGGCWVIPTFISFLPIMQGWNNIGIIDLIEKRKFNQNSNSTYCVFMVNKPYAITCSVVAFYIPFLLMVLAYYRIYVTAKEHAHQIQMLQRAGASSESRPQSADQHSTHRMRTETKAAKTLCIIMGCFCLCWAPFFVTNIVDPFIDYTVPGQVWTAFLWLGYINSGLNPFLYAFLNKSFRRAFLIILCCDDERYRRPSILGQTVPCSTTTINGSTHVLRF

antagonism of the stimulatory effect of 5-HT (1 μM) on the basal cAMP (receptor 5-HT4(c); 4 μg of plasmid DNA, preincubation with 1 μM): antagonized
effect of PTX treatment on the ML10375-induced reduction in basal cAMP (receptor 5-HT4(c); 6 μg of plasmid DNA, ML10375 1 μM, PTX 100 ng/ml, 16-hour preincubation): did not significantly modify
decrease in the basal cAMP level in the presence of 1 μM 5-HT (receptor 5-HT4(c); 8 μg of plasmid DNA, preincubation with 1 μM): 47%
reduction of the basal cAMP levels (receptor 5-HT4(c); COS-7, 1 μM, no agonist): 21%
decrease of the basal cAMP values (receptor 5-HT4(c); COS-7 transfected with 4 μg of plasmid DNA): 24%
decrease of the basal cAMP values (receptor 5-HT4(c); COS-7 transfected with 8 μg of plasmid DNA): 62%
effect on the basal cAMP levels (receptor 5-HT4(a) [1]): no significant effect
reduction of the basal cAMP levels (receptor 5-HT4(d)): 24%
Ki (receptor 5-HT4(b)): 1.62 ± 0.82 nM
Ki (receptor 5-HT4(a) [3]): 0.56 ± 0.11 nM
Compound: COc1cc(N)c(Cl)cc1C(=O)OCCN1C[C@H](C)C[C@H](C)C1 [ML10375, 2-(cis-3,5-dimethyl-piperidino)ethyl 4-amino-5-chloro-2-methoxybenzoate]
effect on basal adenylate cyclase activity / basal cAMP levels [2]: no significant effect
